Key:
[1] = test system: cerebellar granule cells (CGC); test: Antiapoptotic capacity (rescue) in cerebellar granule cells induced into apoptosis by cytosine arabinoside (CGC assay); format: cell-based, Wistar rat
Text: In Vitro Protocol for Assessing the Antiapoptotic Capacity of Various Compounds in Cerebellar Granule Cells
Cultures of cerebellar granule cells (CGC) can be induced into apoptosis by the addition of a high concentration of cytosine arabinoside (AraC). It has been shown that this is a p53 dependent apoptosis. We have measured the antiapoptotic effect of some amino acids, amino esters, amino phosphonic acids, amino nitriles and amino tetrazoles using this system.
Cultures of CGC were obtained from 6-8 day old Wistar rat pups. Cultures were grown on glass in 35 mm petri dishes for three days and then used for experiments. Aliquots (20 ul) of drug solutions (AraC, anti-apoptotic drugs, drug vehicles) were added to the medium of the culture. 24 Hours later the cultures were fixed with FAM, and stained with bis-benzamide. Normal and apoptotic nuclei were counted to a total of 90-120 cells per culture.

[2] = compound 10^−6 M, AraC 300 uM-induced apoptosis, 24 hours
[3] = compound 10^−9 M, AraC 300 uM-induced apoptosis, 24 hours
[4] = compound 10^−12 M, AraC 300 uM-induced apoptosis, 24 hours
[5] = overall over 10^−6, 10^−9, 10^−12 M

SMILES: CC(C)NCCP(=O)(O)O.Cl [2-Propyl (Amino Phosphonic Acids), 2-(2-Propylamino)ethanephosphonic acid hydrochloride]
- Rescue by Amino Phosphonic Acids in the CGC Assay, 10^−6 M [1, 2]: R
- Rescue by Amino Phosphonic Acids in the CGC Assay, 10^−9 M [1, 3]: R
- Rescue by Amino Phosphonic Acids in the CGC Assay, 10^−12 M [1, 4]: R
- Rescue by Amino Phosphonic Acids in the CGC Assay, Rescue (overall yes/no) [1, 5]: yes
- melting point: 164 to 166 °C

SMILES: CCC(C)(C)NCCC#N.Cl [tert-Amyl (Propionitriles), 3-(t-Amylamino)propionitrile hydrochloride]
- Rescue by Amino Nitriles in the CGC Assay, Rescue (overall yes/no) [1, 5]: no
- melting point: 199 to 200 °C

SMILES: CCCCC[C@H](C)NCC#N.Cl [S-2-Heptyl (Acetonitriles), (S)-2-(2-Heptylamino)acetonitrile hydrochloride]
- Rescue by Amino Nitriles in the CGC Assay, 10^−9 M [1, 3]: R
- Rescue by Amino Nitriles in the CGC Assay, 10^−12 M [1, 4]: R
- Rescue by Amino Nitriles in the CGC Assay, Rescue (overall yes/no) [1, 5]: yes
- melting point: 140 °C

SMILES: CCCCC[C@H](C)NCCC(=O)O.Cl [S-2-Heptyl (B-Alanines), (S)-3-(2-Heptylamino)propionic acid hydrochloride]
- Rescue by Amino Acids and Esters in the CGC Assay, Rescue (overall yes/no) [1, 5]: no
- melting point: 56 to 58 °C

SMILES: CC(C)NCCC(=O)O.Cl [2-Propyl (B-Alanines), 3-(2-Propylamino)propionic acid hydrochloride]
- Rescue by Amino Acids and Esters in the CGC Assay, 10^−9 M [1, 3]: R
- Rescue by Amino Acids and Esters in the CGC Assay, 10^−12 M [1, 4]: R
- Rescue by Amino Acids and Esters in the CGC Assay, Rescue (overall yes/no) [1, 5]: yes
- melting point: 154 to 155 °C

SMILES: CCCCC[C@H](C)NCCC#N.Cl [S-2-heptyl (Propionitriles), (S)-3-(2-Heptylamino)propionitrile hydrochloride]
- Rescue by Amino Nitriles in the CGC Assay, Rescue (overall yes/no) [1, 5]: no
- melting point: 133 to 134 °C

SMILES: CCCCCCNCCC#N.Cl [1-Hexyl (Propionitriles), 3-(1-Hexylamino)propionitrile hydrochloride]
- Rescue by Amino Nitriles in the CGC Assay, Rescue (overall yes/no) [1, 5]: no
- melting point: 188 to 189 °C

SMILES: CCC(CC)NCCC#N.Cl [3-Pentyl (Propionitriles), 3-(3-Pentylamino)propionitrile hydrochloride]
- Rescue by Amino Nitriles in the CGC Assay, 10^−6 M [1, 2]: R
- Rescue by Amino Nitriles in the CGC Assay, 10^−9 M [1, 3]: R
- Rescue by Amino Nitriles in the CGC Assay, Rescue (overall yes/no) [1, 5]: yes
- melting point: 118.5 to 119.5 °C

SMILES: CCCCCCNCCC(=O)O [1-Hexyl (B-Alanines), 3(1-Hexylamino)propionic acid]
- Rescue by Amino Acids and Esters in the CGC Assay, 10^−6 M [1, 2]: R
- Rescue by Amino Acids and Esters in the CGC Assay, 10^−9 M [1, 3]: R
- Rescue by Amino Acids and Esters in the CGC Assay, 10^−12 M [1, 4]: R
- Rescue by Amino Acids and Esters in the CGC Assay, Rescue (overall yes/no) [1, 5]: yes
- melting point: 95 to 97 °C

SMILES: CC(C)NCC#N.Cl [2-Propyl (Acetonitriles), 2-(2-Propylamino)acetonitrile hydrochloride]
- Rescue by Amino Nitriles in the CGC Assay, 10^−6 M [1, 2]: R
- Rescue by Amino Nitriles in the CGC Assay, 10^−9 M [1, 3]: R
- Rescue by Amino Nitriles in the CGC Assay, 10^−12 M [1, 4]: R
- Rescue by Amino Nitriles in the CGC Assay, Rescue (overall yes/no) [1, 5]: yes
- melting point: 166 to 167 °C

SMILES: CC(C)N(C)CCC#N.Cl [2-Propyl-N-methyl (Propionitriles), 3-(2-Propylmethylamino)propionitrile hydrochloride]
- Rescue by Amino Nitriles in the CGC Assay, Rescue (overall yes/no) [1, 5]: no
- melting point: 121 to 121.5 °C

From patent publication US6984754B1, “Aliphatic amino carboxylic and amino phosphonic acids amino nitriles and amino tetrazoles as cellular rescue agents” (University of Saskatchewan Technologies Inc., priority 1998, dated 2006)
